In patent EP0060954A1, “Derivatives of fluorophenacyl amines and their therapeutic use” (LABORATOIRE L. LAFON Société anonyme dite:, priority 1981, dated 1982):
Several values for one entry are separate records, joined by “and”; a condition that tells them apart may be missing. Identical values can stand only once.

How the values were obtained:
souris mâles = assay: Intergroup aggressiveness test (number of fights after removal of the partition); format: in vivo; conditions: mouse; dose not given
Text: Des essais comparatifs ont été entrepris pour mettre en évidence quels sont les effets chez l'animal qui permettent de distinguer les produits selon l'invention de leurs homologues fluorés connus. Parmi ces essais, on a résumé ceux concernant les propriétés antiagressives. Plus précisément, on a évalué la diminution de l'agressivité intergroupes selon la technique suivante : a.près avoir séjourné pendant 3 semaines de part et d'autre d'une cloison opaque séparant leur cage par le milieu, des groupes de trois souris mâles de 20 g chacune environ reçoivent, par voie intrapéritonéale, les produits à tester en solution dans de l'eau distillée, les animaux témoins ne recevant que de l'eau distillée par voie intrapéritonéale. Une demi-heure plus tard, les deux groupes d'une même cage sont réunis par retrait de la cloison opaque et on note le nombre de combats qui surviennent en 10 min. On a utilisé trois cages pour chaque produit à tester et six cages pour le lot témoin ne recevant pas les produits à tester.
Les résultats du tableau I ci-après donnent la diminution de l'agressivité intergroupes par rapport au lot témoin, tous les produits à tester étant administrés à la dose de 8 mg/kg par voie intrapéritonéale. […]

souris [1] = assay: Toxicity: maximal non-lethal dose DL-0, intraperitoneal; format: in vivo; conditions: mouse, i.p.
Protocol: La dose maximale non mortelle, DL-0, est supérieure à 128 mg/kg et inférieure à 256 mg/kg, chez la souris, par voie I.P. 2°) - Action sur le SNC
(§1) Le CRL 40827, en solution dans de l'eau distillée, a été administré par voie intrapéritonéale sous un volume de 20 ml/kg chez la souris mâle et un volume de 5 ml/kg chez le rat mâle. 1°) - Toxicité
La dose maximale non mortelle, DL-0, est supérieure à 64 mg/kg et inférieure à 128 mg/kg chez la souris mâle.
Le CRL 40854, en solution dans de l'eau distillée, a été administré par voie intrapéritonéale sous un volume de 20 ml/kg chez la souris màle et de 5 ml/kg chez le rat màle.
La dose maximale non mortelle DL-0 est supérieure à 128 mg/kg et inférieure à 256 mg/kg chez la souris.

rat = assay: Interaction with apomorphine, rat; format: in vivo; conditions: i.p. 30 min before apomorphine 0,5 mg/kg s.c.
Protocol: as §1
Le CRL 40 827 est administré à des lots de 6 rats 30 min avant l'injection sous-cutanée de 0,5 mg/kg d'apomorphine.
(§2) En procédant selon les modalités opératoires données ci-dessus pour le CRL 40827, on observe ce qui suit.

rats = assay: Interaction with amphetamine (stereotypies); format: in vivo, rat; conditions: rat
Protocol: L'amphétamine (2 mg/kg) est injectée par voie intrapéritonéale à des lots de 6 rats, 30 min après l'administration de CRL 40827. […] Interaction avec la réserpine
as §2

souris [2] = assay: Interaction with reserpine (hypothermia, ptosis); format: in vivo; conditions: mouse
Protocol: Quatre heures après l'injection intrapéritonéale de 2,5 mg/kg de réserpine, des lots de 6 souris reçoivent le CRL 40827.
as §2

souris [3] = assay: Interaction with oxotremorine; format: in vivo; conditions: mouse
Protocol: Le CRL 40827 est administré à des lots de 6 souris 30 min avant l'injection intrapéritonéale de 0,5 mg/kg d'oxotrémo- rine. On observe que, dès la dose de 0,5 mg/kg, le CRL 40827 antagonise l'action hypothermisante de l'oxotrémorine; cet effet est très net à 32 mg/kg.
as §2

souris [4] = assay: Four-plate test, traction and electroshock; format: in vivo; conditions: mouse, 30 min after dosing
Protocol: Le test est pratiqué sur des lots de 10 souris, 30 min après l'administration de CRL 40827.
as §2

souris [5] = assay: Spontaneous motility (actimeter); format: in vivo; conditions: mouse, recorded 30 min, 30 min after dosing
Protocol: Une demi-heure après avoir reçu le CRL 40827, les souris (6 par dose, 12 témoins) sont placées en actimètre où leur motilité est enregistrée pendant 30 min.
as §2

souris [6] = assay: Motility reduced by habituation to the enclosure; format: in vivo; conditions: mouse; high dose 34 mg/kg
Protocol: Après 18 h de séjour dans les actimètres, les souris (6 par dose, 12 témoins) reçoivent le CRL 40827. Elles sont aussitôt replacées dans leurs enceintes respectives et, 30 min plus tard, on enregistre leur motilité pendant 30 min.
as §2

souris [7] = assay: Motility reduced by hypoxic aggression (acute hypobaric anoxia); format: in vivo; conditions: mouse
Protocol: Une demi-heure après avoir reçu le CRL 40827, les souris (10 par dose, 20 témoins) sont soumises à une anoxie hypobare aiguë (dépression de 8 x 10^4 Pa en 90 s, détente de 45 s), puis elles sont placées en actimètre où leur motilité est enregistrée pendant 10 min.
as §2

souris [8] = assay: Asphyxic anoxia (gallamine triethiodide); format: in vivo; conditions: mouse; highest dose 34 mg/kg, 30 min before gallamine triethiodide i.p.
Protocol: Des lots de 10 souris reçoivent le CRL 40827 30 min avant l'administration intrapéritonéale d: 34 mg/kg de triiodoéthy- late de gallamine. A la plus forte dose (34 mg/kg),le CRL 40827 empêche l'apparition des convulsions et de la mort chez 40% des animaux.
as §2

chien anesthésié = assay: Cardiovascular and respiratory action, anaesthetised dog; format: in vivo
[9] = system: rat éveillé génétiquement hypertendu; assay: Cardiovascular action, awake genetically hypertensive rat; format: in vivo
[10] = system: chien anesthésié au Nembutal; assay: Biliary secretion, dog anaesthetised with Nembutal; format: in vivo; conditions: normal 1,5 ml
Protocol: (§3) Chez le chien anesthésié au Nembutal, le débit biliaire normal recueilli en 30 min est de 1,5 ml; le débit biliaire augmente après injection intraduodénale de CRL 40827 et passe à 1,75 ml pour 2,5 mg/kg de CRL 40827, à 2,25 ml pour 5 mg/kg et à 2,5 ml pour 10 mg/kg. Chez le rat anesthésié au Nembutal, le débit biliaire augmente 1 à 3 h après injection I.V. de CRL 40827 aux doses de 5 mg/kg et 25 mg/kg.

[11] = system: rat anesthésié au Nembutal; assay: Biliary secretion, rat anaesthetised with Nembutal; format: in vivo; conditions: 1 to 3 h after I.V. injection of 5 mg/kg and 25 mg/kg
Protocol: as §3

cobaye = assay: Local anaesthetic effect, intradermal injection, pin-prick test; format: in vivo; conditions: guinea pig, intradermal 0,2 ml, concentrations 0,5 and 1%
Protocol: L'effet anesthésique a été étudié chez le cobaye après injection du CRL 40827 par voie intradermique sous un volume de 0,2 ml aux concentrations de 0,1, 0,5 et 1% (3 cobayes par dose). Chaque animal reçoit le sérum physiologique, la procaine et le CRL 40827 dans des zones délimitées.
Le test qui consiste en une série de six piqûres de la zone injectée est réalisé 5, 10, 15, 20, 25 et 30 min après l'injection.

homme = assay: Clinical use as sedative and antidepressant agents; format: in vivo; conditions: clinic

CC(C)(C)NCC(O)c1ccccc1F (stereo not drawn) [CRL 40827, chlorhydratede 1-(2-fluorophényl)-2-tertiobutylamino-1-éthanol]
agressivité intergroupes / effet antiagressif (souris mâles): diminue l'agressivité intergroupes
dose maximale non mortelle, DL-0 (souris [1]): > 64 mg/kg and < 128 mg/kg
stéréotypies induites par l'apomorphine (rat): laisse inchangées
index de stéréotypies (amphétamine) (rats; 4 mg/kg): diminution isolée
stéréotypies amphétaminiques (rats; amphetamine 2 mg/kg i.p. 30 min after the compound): ne modifie pas
ptôsis réserpinique (souris [2]): sans modifier
hypothermie réserpinique (souris [2]; from 0,5 mg/kg, 4 h after reserpine 2,5 mg/kg i.p.): combat nettement
signes de stimulation cholinergique périphérique (oxotrémorine) (souris [3]): laisse inchangés
tremblements provoqués par l'oxotrémorine (souris [3]): ne modifie pas
action hypothermisante de l'oxotrémorine (antagonisme) (souris [3]; 32 mg/kg): très net
action hypothermisante de l'oxotrémorine (souris [3]; from 0,5 mg/kg, 30 min before oxotremorine 0,5 mg/kg i.p.): antagonise
effets convulsivants de l'électrochoc (souris [4]): à forte dose, s'oppose aux effets convulsivants
incapacité motrice (traction) (souris [4]): ne provoque pas d'incapacité motrice majeure
nombre de passages punis (test des quatre plaques) (souris [4]): n'entraîne pas d'augmentation
activité motrice spontanée (souris [5]): ne modifie pratiquement pas
activité motrice (souris habituées à l'enceinte) (souris [6]): semble provoquer une reprise modérée
récupération motrice après anoxie hypobare (souris [7]): n'entraîne pas d'amélioration
animaux chez lesquels l'apparition des convulsions et de la mort est empêchée (souris [8]): 40%
minimal effective dose (chien anesthésié; Canis lupus familiaris, dog, read-out: dose from which the effets hypertenseurs de la noradrénaline are diminished): 1 mg/kg
pression artérielle et fréquence cardiaque (chien anesthésié; anaesthetised dog): hypotenseur et tachycardisant
dose of maximal effect on the effets hypertenseurs de la noradrénaline (chien anesthésié; dog): ~10 mg/kg
débit cardiaque (chien anesthésié; in vivo): reste égal
débits sanguins locaux (chien anesthésié; in vivo): n'augmentent pas
respiration (chien anesthésié; in vivo): stimule la respiration
résistances vasculaires des territoires explorés (vertébral, fémoral et rénal) et résistance périphérique totale (chien anesthésié; in vivo): diminue
travail du ventricule gauche et diastole (chien anesthésié; in vivo): diminue le travail du ventricule gauche et raccourcit la diastole
pression artérielle et fréquence cardiaque [9]: hypotenseur et tachycardisant
débit biliaire recueilli en 30 min ([10]; dog, 5 mg/kg intraduodenal): 2,25 ml
débit biliaire recueilli en 30 min ([10]; dog, 10 mg/kg intraduodenal): 2,5 ml
débit biliaire recueilli en 30 min ([10]; dog, 2,5 mg/kg intraduodenal): 1,75 ml
débit biliaire [11]: augmente
effet anesthésique local (cobaye): présente un effet anesthésique local
résultats cliniques dans le domaine psychotrope en tant qu'agents sédatifs et antidépresseurs (homme): bons résultats
